{"source": "ChEMBL document CHEMBL1201862", "about": "“PubChem BioAssay data set” (2004)", "test_in_all_cases": "inhibition of tumour cell growth, NCI panel, 48 h", "key": {"786-0": {"test_system": "786-0"}, "A498": {"test_system": "A498"}, "A549": {"test_system": "A549"}, "ACHN": {"test_system": "ACHN"}, "BT-549": {"test_system": "BT-549"}, "CAKI-1": {"test_system": "CAKI-1"}, "CCRF-CEM": {"test_system": "CCRF-CEM"}, "DU-145": {"test_system": "DU-145"}, "EKVX": {"test_system": "EKVX"}, "HCC 2998": {"test_system": "HCC 2998"}, "HCT-116": {"test_system": "HCT-116"}, "HCT-15": {"test_system": "HCT-15"}, "HL-60": {"test_system": "HL-60"}, "HOP-62": {"test_system": "HOP-62"}, "HOP-92": {"test_system": "HOP-92"}, "HT-29": {"test_system": "HT-29"}, "Hs-578T": {"test_system": "Hs-578T"}, "IGROV-1": {"test_system": "IGROV-1"}, "K562": {"test_system": "K562"}, "KM12": {"test_system": "KM12"}, "LOX IMVI": {"test_system": "LOX IMVI"}, "M14": {"test_system": "M14"}, "MCF7": {"test_system": "MCF7"}, "MDA-MB-231": {"test_system": "MDA-MB-231"}, "MDA-MB-435": {"test_system": "MDA-MB-435"}, "MDA-N": {"test_system": "MDA-N"}, "MOLT-4": {"test_system": "MOLT-4"}, "Malme-3M": {"test_system": "Malme-3M"}, "NCI-H226": {"test_system": "NCI-H226"}, "NCI-H23": {"test_system": "NCI-H23"}, "NCI-H460": {"test_system": "NCI-H460"}, "NCI-H522": {"test_system": "NCI-H522"}, "NCI/ADR-RES": {"test_system": "NCI/ADR-RES"}, "OVCAR-3": {"test_system": "OVCAR-3"}, "OVCAR-4": {"test_system": "OVCAR-4"}, "OVCAR-5": {"test_system": "OVCAR-5"}, "OVCAR-8": {"test_system": "OVCAR-8"}, "RPMI-8226": {"test_system": "RPMI-8226"}, "RXF 393": {"test_system": "RXF 393"}, "SF-268": {"test_system": "SF-268"}, "SF-539": {"test_system": "SF-539"}, "SK-MEL-28": {"test_system": "SK-MEL-28"}, "SK-MEL-2": {"test_system": "SK-MEL-2"}, "SK-MEL-5": {"test_system": "SK-MEL-5"}, "SK-OV-3": {"test_system": "SK-OV-3"}, "SN12C": {"test_system": "SN12C"}, "SNB-19": {"test_system": "SNB-19"}, "SNB-75": {"test_system": "SNB-75"}, "SR": {"test_system": "SR"}, "SW-620": {"test_system": "SW-620"}, "T47D": {"test_system": "T47D"}, "TK-10": {"test_system": "TK-10"}, "U-251": {"test_system": "U-251"}, "UACC-257": {"test_system": "UACC-257"}, "UACC-62": {"test_system": "UACC-62"}, "UO-31": {"test_system": "UO-31"}}, "note": "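Tested at 5 concentrations; 48 h exposure; 96-well plates; endpoints linearly interpolated, else capped at highest concentration. Here, GI50 denotes the concentration required for 50% inhibition of growth.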 Calls of active or inactive are those of the source. Cut-off read from the data, not from the text of the source: active = GI50 up to about 1.1 µM and inactive = higher.", "data": [{"compound": "COc1ccc(N(C)C(=O)N(C)c2ccc([N+](=O)[O-])cc2)cc1", "values": [{"measurement": "GI50", "setting": "786-0", "result": "58.9 µM (inactive)"}, {"measurement": "GI50", "setting": "A498", "result": "66.4 µM (inactive)"}, {"measurement": "GI50", "setting": "A549", "result": "58.1 µM (inactive)"}, {"measurement": "GI50", "setting": "ACHN", "result": "> 100 µM (inactive)"}, {"measurement": "GI50", "setting": "BT-549", "result": "44.8 µM (inactive)"}, {"measurement": "GI50", "setting": "CAKI-1", "result": "41.6 µM (inactive)"}, {"measurement": "GI50", "setting": "CCRF-CEM", "result": "23.9 µM (inactive)"}, {"measurement": "GI50", "setting": "DU-145", "result": "90.6 µM (inactive)"}, {"measurement": "GI50", "setting": "EKVX", "result": "65.2 µM (inactive)"}, {"measurement": "GI50", "setting": "HCC 2998", "result": "33 µM (inactive)"}, {"measurement": "GI50", "setting": "HCT-116", "result": "27.4 µM (inactive)"}, {"measurement": "GI50", "setting": "HCT-15", "result": 30.1, "unit": "µM"}, {"measurement": "GI50", "setting": "HL-60", "result": "31 µM (inactive)"}, {"measurement": "GI50", "setting": "HOP-62", "result": "39.4 µM (inactive)"}, {"measurement": "GI50", "setting": "HOP-92", "result": "25.5 µM (inactive)"}, {"measurement": "GI50", "setting": "HT-29", "result": "28.6 µM (inactive)"}, {"measurement": "GI50", "setting": "Hs-578T", "result": "6.4 µM (inactive)"}, {"measurement": "GI50", "setting": "IGROV-1", "result": "43.2 µM (inactive)"}, {"measurement": "GI50", "setting": "K562", "result": "18.4 µM (inactive)"}, {"measurement": "GI50", "setting": "KM12", "result": "18.8 µM (inactive)"}, {"measurement": "GI50", "setting": "LOX IMVI", "result": "33.1 µM (inactive)"}, {"measurement": "GI50", "setting": "M14", "result": "34 µM (inactive)"}, {"measurement": "GI50", "setting": "MCF7", "result": "39.1 µM (inactive)"}, {"measurement": "GI50", "setting": "MDA-MB-231", "result": "45.3 µM (inactive)"}, {"measurement": "GI50", "setting": "MDA-MB-435", "result": "4.21 µM (inactive)"}, {"measurement": "GI50", "setting": "MDA-N", "result": "9.25 µM (inactive)"}, {"measurement": "GI50", "setting": "MOLT-4", "result": "> 100 µM (inactive)"}, {"measurement": "GI50", "setting": "Malme-3M", "result": "36.2 µM (inactive)"}, {"measurement": "GI50", "setting": "NCI-H226", "result": "23 µM (inactive)"}, {"measurement": "GI50", "setting": "NCI-H23", "result": "34.6 µM (inactive)"}, {"measurement": "GI50", "setting": "NCI-H460", "result": "25.8 µM (inactive)"}, {"measurement": "GI50", "setting": "NCI-H522", "result": "23.8 µM (inactive)"}, {"measurement": "GI50", "setting": "NCI/ADR-RES", "result": "23.6 µM (inactive)"}, {"measurement": "GI50", "setting": "OVCAR-3", "result": "26.7 µM (inactive)"}, {"measurement": "GI50", "setting": "OVCAR-4", "result": "11.2 µM (inactive)"}, {"measurement": "GI50", "setting": "OVCAR-5", "result": "39.9 µM (inactive)"}, {"measurement": "GI50", "setting": "OVCAR-8", "result": "71 µM (inactive)"}, {"measurement": "GI50", "setting": "RPMI-8226", "result": "51.1 µM (inactive)"}, {"measurement": "GI50", "setting": "RXF 393", "result": "14.3 µM (inactive)"}, {"measurement": "GI50", "setting": "SF-268", "result": "82 µM (inactive)"}, {"measurement": "GI50", "setting": "SF-539", "result": "29.6 µM (inactive)"}, {"measurement": "GI50", "setting": "SK-MEL-28", "result": "50.2 µM (inactive)"}, {"measurement": "GI50", "setting": "SK-MEL-2", "result": "14.5 µM (inactive)"}, {"measurement": "GI50", "setting": "SK-MEL-5", "result": "38.8 µM (inactive)"}, {"measurement": "GI50", "setting": "SK-OV-3", "result": "17.7 µM (inactive)"}, {"measurement": "GI50", "setting": "SN12C", "result": "61.4 µM (inactive)"}, {"measurement": "GI50", "setting": "SNB-19", "result": "> 100 µM (inactive)"}, {"measurement": "GI50", "setting": "SNB-75", "result": "29.6 µM (inactive)"}, {"measurement": "GI50", "setting": "SR", "result": "19.5 µM (inactive)"}, {"measurement": "GI50", "setting": "SW-620", "result": "23.3 µM (inactive)"}, {"measurement": "GI50", "setting": "T47D", "result": "66.4 µM (inactive)"}, {"measurement": "GI50", "setting": "TK-10", "result": "10.5 µM (inactive)"}, {"measurement": "GI50", "setting": "U-251", "result": "30.4 µM (inactive)"}, {"measurement": "GI50", "setting": "UACC-257", "result": "26.1 µM (inactive)"}, {"measurement": "GI50", "setting": "UACC-62", "result": "33.9 µM (inactive)"}, {"measurement": "GI50", "setting": "UO-31", "result": "41.4 µM (inactive)"}]}]}
